# Measured values reported in patent publication US11225469B2, “Inhibitors of phosphoglycerate dehydrogenase (PHGDH) and uses thereof” (Whitehead Institute for Biomedical Research, priority 2015, dated 2022).
# Columns and labels:
# GAPDH = GAPDH (Homo sapiens (Human), UniProt P04406); assay: Counter-screen against GAPDH; type: biochemical; details: Table E11
# Experimental: GAPDH substrate buffer contained 210 mM Tris pH 7.4, 2.5 mM NaH2PO4 pH 7.4, 2 mM DL-Glyceraldehyde 3-phosphate, 1.75 mM MgCl2, 0.01 mM NAD+, 0.11 mM resazurin, 0.2 mg/mL BSA, and 0.01% Tween-20. GAPDH enzyme buffer contained 50 mM Tris pH 7.4, 100 mM NaCl, 0.02 mM TCEP, 0.01 mM EDTA, 0.1 mg/mL BSA, 0.42 mg/mL diaphorase, and 2.5 nM GAPDH. The GAPDH, GPD1, and GPD1L assays were run in 384-well plates using the same protocol and readout as the PHGDH assay. […] GPD1 enzyme buffer contained 50 mM Tris pH 7.4, 100 mM NaCl, 0.08 mM TCEP, 0.4 mg/mL BSA, 0.03 μM EDTA, and 0.8 nM GPD1. 70 μL of substrate buffer were mixed with 10 μL enzyme buffer. GPD1L substrate buffer contained 200 mM Tris pH 7.4, 0.05 mM sn-G3-P, 2 mM MgCl2, 0.04 mM NAD+, 0.11 mM resazurin, 0.1 mg/mL BSA, and 0.02% Tween-20. GPD1L enzyme buffer contained 50 mM Tris pH 7.4, 100 mM NaCl, 0.02 mM TCEP, 0.42 mg/mL diaphorase, 0.1 mg/mL BSA, 0.008 μM EDTA, and 16 nM GPD1L. 40 μL of substrate buffer were mixed with 40 μL of enzyme buffer.
# The GAPDH and GPD1L assays were read using the same protocol as the PHGDH assay. The GPD1 assay was read using loss of NADH fluorescence (λex=340 nm and λem=460 nm).
# PHGDH [1] = molecular target: T1, PHGDH (Homo sapiens (Human), UniProt O43175); assay: Inhibitor kinetics: competition against substrates and dilution experiments; type: biochemical; details: Lineweaver-Burk
# Description: (§1) Destabilization has been previously observed in the specific binding of small molecules to their protein targets (see, e.g., Hamiaux, C. et al. “DAD2 is an α/β hydrolase likely to be involved in the perception of the plant branching hormone, strigolactone.” Curr Biol 22, 2032-2036 (2012)).
# PHGDH [2] = molecular target: T1, PHGDH; assay: Differential scanning fluorimetry; type: binding
# Experimental: as §1
# Differential scanning fluorimetry assays were carried out in 20 mM TEA pH 8, 100 mM NaCl, 1× SYPRO Orange (Sigma), 2 μM PHGDH in a volume of 10 μL. Unfolding was monitored using a LightCycler 480 II real-time PCR instrument (λex=465 nm and λem=580 nm) over a linear 20 to 85° C. gradient. Plots of the first derivative of fluorescence vs. temperature were generated in LightCycler software.
# [3] = test system: MDA-MB-231 cells over-expressing PHGDH; assay: Intracellular serine in MDA-MB-231 cells expressing PHGDH, medium lacking serine and glycine (LC-MS); type: cell-based, human; details: media lacking serine and glycine
# Experimental: To examine target engagement of PHGDH inhibitors in cells, MDA-MB-231 cells that lack detectable expression of PHGDH and MDA-MB-231 cells that stably express full-length human PHGDH (MDA-MB-231-PHGDH) were treated with PHGDH inhibitors in RPMI lacking serine and glycine. A MDA-MB-231 cell line was constructed which expresses PHGDH for comparison against the MDA-MB-231 empty vector line. MDA-MB-231 breast cancer cells were infected with PHGDH-expressing retrovirus.
# MDA-MB-231 cells are incapable of synthesizing serine, but the addition of PHGDH permits these cells to synthesize serine. […] Concentrations of serine were determined by comparison with signals of internal standards and calibration curves. PHGDH inhibition reduces steady-state levels of intracellular serine in MDA-MB-231 cells over-expressing PHGDH. Studies were also performed in MDA-MB-468 cells, which over-express PHGDH and are PHGDH-dependent.
# Cells were evenly seeded at 400,000 cells per well of a 6-well plate and allowed to attach for 24 hours. Prior to all labeling experiments, cells were pretreated with 10 μM compound or an equivalent volume of DMSO in RPMI for 1 hour. For steady-state metabolite concentrations, cells were washed with PBS prior to pretreatment and treatment in RPMI lacking serine and glycine. For labeling experiments, U-^13C-glucose, U-^13C-serine, or U-^13C-glycine replaced the corresponding unlabeled RPMI component. Cells were washed in 4° C. […] Triplicate identically seeded wells were trypsinzed and analyzed with a Multisizer Coulter Counter (Beckman Coulter) to obtain cell counts and total cell volumes for normalization.
# Dried metabolites were resuspended in 100 μL water, centrifuged at 13,000×g at 4° C. for 10 minutes, and the supernatant recovered for analysis. […] Metabolites were monitored using a polarity-switching full-scan method and identified by accurate mass (±20 ppm) and retention time within 15 seconds of a previously run pure standard. […]
# [4] = Body weight of treated xenograft mice; type: in vivo, mouse; details: 24-day treatment
# Experimental: Female NOD.CB17-Prkdc^scid/J mice, 6-8 weeks old, were obtained from Jackson Laboratories. All animals were provided with food ad libitum for the duration for the duration of the experiment. The animals were allocated randomly for induction with MDA-MB-231 or MDA-MB-468 tumors and tumor group was assigned blindly. 500,000 MDA-MB-231 or MDA-MB-468 cells were injected into the 4th mammary fat pad of each mouse. After 30 days, the tumors were palpable, and the mice were pooled by tumor type and divided randomly to two groups, which were assigned blindly to vehicle or NCT-503 treatment. […] Caliper measurements were obtained twice weekly and tumor volumes were calculated with the modified ellipsoid formula: volume=0.5×width^2×length.
# T1 sequence (O43175 whole entry): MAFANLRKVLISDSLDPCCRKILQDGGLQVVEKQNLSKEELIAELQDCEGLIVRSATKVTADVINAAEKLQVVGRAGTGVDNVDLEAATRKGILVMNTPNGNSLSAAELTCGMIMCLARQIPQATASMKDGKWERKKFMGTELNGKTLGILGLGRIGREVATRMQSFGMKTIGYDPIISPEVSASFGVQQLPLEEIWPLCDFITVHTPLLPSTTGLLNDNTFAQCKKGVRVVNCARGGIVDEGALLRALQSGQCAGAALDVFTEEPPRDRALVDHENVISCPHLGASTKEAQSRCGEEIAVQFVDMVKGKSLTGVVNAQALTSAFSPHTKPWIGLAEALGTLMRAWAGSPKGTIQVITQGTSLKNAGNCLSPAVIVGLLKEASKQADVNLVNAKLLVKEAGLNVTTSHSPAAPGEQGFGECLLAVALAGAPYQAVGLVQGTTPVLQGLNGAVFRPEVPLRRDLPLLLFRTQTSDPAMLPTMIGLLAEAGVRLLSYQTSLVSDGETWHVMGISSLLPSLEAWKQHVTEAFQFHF
# Sequence of GAPDH (P04406 whole entry): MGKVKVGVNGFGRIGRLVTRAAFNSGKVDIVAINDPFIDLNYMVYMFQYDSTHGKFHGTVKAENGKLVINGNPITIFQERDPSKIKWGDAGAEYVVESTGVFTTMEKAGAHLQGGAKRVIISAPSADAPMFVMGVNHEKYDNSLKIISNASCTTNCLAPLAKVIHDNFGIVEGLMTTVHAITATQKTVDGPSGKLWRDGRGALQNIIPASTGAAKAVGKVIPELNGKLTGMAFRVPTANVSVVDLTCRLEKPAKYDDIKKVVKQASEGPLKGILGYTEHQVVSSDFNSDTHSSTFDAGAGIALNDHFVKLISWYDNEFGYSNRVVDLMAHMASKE
compound,measurement,setting,value
"Cc1cc(C)nc(NC(=S)N2CCN(Cc3ccc(C(F)(F)F)cc3)CC2)c1 [Compound 267, N-(4,6-dimethylpyridin-2-yl)-4-(4-(trifluoromethyl)benzyl)piperazine-1-carbothioamide]",IC50,GAPDH,≥ 100 µM
same,type of inhibition with respect to 3-PG,PHGDH [1],mixed-mode inhibition
same,type of inhibition with respect to NAD+,PHGDH [1],non-competitive inhibition
same,Tm of PHGDH,PHGDH [2],decreased
same,intracellular serine levels,[3],reduced
same,body weight of mice,[4],did not lose weight
